# Data from ChEMBL document CHEMBL3421625, “Discovery and optimization of novel antagonists to the human neurokinin-3 receptor for the treatment of sex-hormone disorders (Part I)” (J Med Chem, 2015).
# Columns and labels:
# [1] = biological target: T1, Substance-K receptor (Homo sapiens, UniProt P21452); test: Displacement of [125I]NKA from human NK2R expressed in CHO cell membranes after 90 mins by scintillation counting analysis
# T1 sequence (P21452 whole entry): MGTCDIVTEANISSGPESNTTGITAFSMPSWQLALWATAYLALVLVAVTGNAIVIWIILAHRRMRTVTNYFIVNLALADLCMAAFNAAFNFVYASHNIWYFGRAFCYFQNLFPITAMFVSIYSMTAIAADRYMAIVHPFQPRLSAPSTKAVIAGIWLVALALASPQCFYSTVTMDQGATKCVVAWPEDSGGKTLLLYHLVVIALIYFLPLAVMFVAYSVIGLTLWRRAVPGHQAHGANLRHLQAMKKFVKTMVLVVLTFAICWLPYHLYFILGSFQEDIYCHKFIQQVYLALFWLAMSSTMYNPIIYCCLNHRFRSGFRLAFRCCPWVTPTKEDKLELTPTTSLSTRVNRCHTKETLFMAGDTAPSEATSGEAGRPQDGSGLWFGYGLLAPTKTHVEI
# [2] = Lipophilicity, log D of the compound at pH 7.4; type: physicochemical; conditions: buffer, read-out: logD
# [3] = Solubility of the compound in PBS buffer at pH 7.4 by shake-flask method; type: physicochemical
# [4] = biological target: Cytochrome P450 3A4 (Homo sapiens, UniProt P08684); test: Inhibition of CYP3A4 (unknown origin) by luciferase reporter assay in presence of NADPH regeneration system; type: ADME
# [5] = biological target: Cytochrome P450 2D6 (Homo sapiens, UniProt P10635); test: Inhibition of CYP2D6 (unknown origin) by luciferase reporter assay in presence of NADPH regeneration system; type: ADME
# [6] = biological target: Cytochrome P450 2C9 (Homo sapiens, UniProt P11712); test: Inhibition of CYP2C9 (unknown origin) by luciferase reporter assay in presence of NADPH regeneration system; type: ADME
# [7] = biological target: Cytochrome P450 2C19 (Homo sapiens, UniProt P33261); test: Inhibition of CYP2C19 (unknown origin) by luciferase reporter assay in presence of NADPH regeneration system
# [8] = biological target: T2, Cytochrome P450 1A2 (Homo sapiens, UniProt P05177); test: Inhibition of CYP1A2 (unknown origin) by luciferase reporter assay in presence of NADPH regeneration system; type: ADME
# T2 sequence (P05177 whole entry): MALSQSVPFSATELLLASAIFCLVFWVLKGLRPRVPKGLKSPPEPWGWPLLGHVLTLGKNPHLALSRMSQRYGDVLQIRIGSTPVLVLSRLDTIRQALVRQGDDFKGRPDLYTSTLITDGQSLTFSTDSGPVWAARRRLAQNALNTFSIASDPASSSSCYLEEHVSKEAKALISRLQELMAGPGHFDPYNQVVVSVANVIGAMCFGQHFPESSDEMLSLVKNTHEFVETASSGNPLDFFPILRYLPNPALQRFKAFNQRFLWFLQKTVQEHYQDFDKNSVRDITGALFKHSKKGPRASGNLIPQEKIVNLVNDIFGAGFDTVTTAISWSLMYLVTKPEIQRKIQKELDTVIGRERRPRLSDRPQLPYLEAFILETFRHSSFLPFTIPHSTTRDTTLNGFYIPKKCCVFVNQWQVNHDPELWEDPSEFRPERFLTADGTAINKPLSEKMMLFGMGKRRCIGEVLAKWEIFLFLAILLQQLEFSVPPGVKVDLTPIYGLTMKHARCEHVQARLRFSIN
# [9] = biological target: Kappa-type opioid receptor (Homo sapiens) (UniProt P41145); test: Inhibition of KOR (unknown origin) at 10 uM relative to control
# [10] = Fraction unbound in rat plasma at 5 uM after 4 hrs by equilibrium dialysis method; type: ADME, cell-free
# [11] = Apparent permeability across apical to basolateral side in human Caco2 cells in presence of 0.1% bovine serum albumin; conditions: Caco-2
# [12] = Apparent permeability across basolateral to apical side in human Caco2 cells in presence of 0.1% bovine serum albumin; conditions: Caco-2
# [13] = Total systemic clearance in Sprague-Dawley rat at 1 mg/kg, iv by LC-MS/MS analysis; type: ADME, organism-based; parameters: dose 1 mg/kg, route intravenous; conditions: in vivo
# [14] = system: Rattus norvegicus; test: Unbound AUC in Sprague-Dawley rat at 1 mg/kg, iv by LC-MS/MS analysis; type: ADME, organism-based; parameters: dose 1 mg/kg, route intravenous; conditions: in vivo
# [15] = system: Rattus norvegicus; test: Unbound AUC in Sprague-Dawley rat at 3 mg/kg, po by LC-MS/MS analysis; type: ADME, organism-based; parameters: dose 3 mg/kg, route oral; conditions: in vivo
# [16] = system: Rattus norvegicus; test: Unbound Cmax in Sprague-Dawley rat at 3 mg/kg, po by LC-MS/MS analysis; type: ADME, organism-based; parameters: dose 3 mg/kg, route oral; conditions: in vivo
# [17] = Fraction unbound in rat brain at 5 uM after 4 hrs by equilibrium dialysis method; type: ADME, tissue-based
# [18] = Ratio of unbound drug level in brain to plasma in Sprague-Dawley rat at 1 mg/kg, iv measured at 10 mins; conditions: brain and plasma
# [19] = Ratio of unbound drug level in brain to plasma in Sprague-Dawley rat at 1 mg/kg, iv measured at 60 mins; conditions: brain and plasma
# [20] = biological target: T3, Neuromedin-K receptor (Homo sapiens, UniProt P29371)
# T3 sequence (P29371 whole entry): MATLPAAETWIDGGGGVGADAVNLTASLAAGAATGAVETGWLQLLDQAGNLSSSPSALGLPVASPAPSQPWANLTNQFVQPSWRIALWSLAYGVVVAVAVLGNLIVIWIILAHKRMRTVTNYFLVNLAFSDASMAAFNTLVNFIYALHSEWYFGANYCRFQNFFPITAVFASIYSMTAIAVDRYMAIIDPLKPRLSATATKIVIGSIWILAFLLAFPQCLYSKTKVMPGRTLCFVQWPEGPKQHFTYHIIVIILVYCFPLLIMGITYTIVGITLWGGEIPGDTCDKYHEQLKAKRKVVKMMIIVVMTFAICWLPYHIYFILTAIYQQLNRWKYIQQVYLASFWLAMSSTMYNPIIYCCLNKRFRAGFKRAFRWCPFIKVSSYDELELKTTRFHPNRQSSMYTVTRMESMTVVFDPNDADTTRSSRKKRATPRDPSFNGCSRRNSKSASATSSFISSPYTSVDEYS
# [21] = biological target: T4, NK-3 receptor (Macaca mulatta, UniProt Q2WGM0)
# T4 sequence (Q2WGM0 whole entry): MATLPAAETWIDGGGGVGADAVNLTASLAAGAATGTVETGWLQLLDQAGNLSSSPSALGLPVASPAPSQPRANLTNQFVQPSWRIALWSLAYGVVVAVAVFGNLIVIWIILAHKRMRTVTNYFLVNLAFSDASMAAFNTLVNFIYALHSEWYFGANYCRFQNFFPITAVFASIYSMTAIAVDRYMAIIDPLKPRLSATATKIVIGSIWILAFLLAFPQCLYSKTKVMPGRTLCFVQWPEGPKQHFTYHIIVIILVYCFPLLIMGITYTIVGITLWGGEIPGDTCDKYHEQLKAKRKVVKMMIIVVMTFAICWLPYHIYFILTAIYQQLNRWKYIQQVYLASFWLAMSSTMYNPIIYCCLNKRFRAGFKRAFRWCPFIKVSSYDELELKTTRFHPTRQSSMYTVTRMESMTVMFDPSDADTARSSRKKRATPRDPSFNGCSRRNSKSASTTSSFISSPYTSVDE
# Description: Displacement of [3H]-SB222200 from monkey NK3R after 90 mins by scintillation counting analysis
# [22] = biological target: T5, Neuromedin-K receptor (Rattus norvegicus, UniProt P16177)
# T5 sequence (P16177 whole entry): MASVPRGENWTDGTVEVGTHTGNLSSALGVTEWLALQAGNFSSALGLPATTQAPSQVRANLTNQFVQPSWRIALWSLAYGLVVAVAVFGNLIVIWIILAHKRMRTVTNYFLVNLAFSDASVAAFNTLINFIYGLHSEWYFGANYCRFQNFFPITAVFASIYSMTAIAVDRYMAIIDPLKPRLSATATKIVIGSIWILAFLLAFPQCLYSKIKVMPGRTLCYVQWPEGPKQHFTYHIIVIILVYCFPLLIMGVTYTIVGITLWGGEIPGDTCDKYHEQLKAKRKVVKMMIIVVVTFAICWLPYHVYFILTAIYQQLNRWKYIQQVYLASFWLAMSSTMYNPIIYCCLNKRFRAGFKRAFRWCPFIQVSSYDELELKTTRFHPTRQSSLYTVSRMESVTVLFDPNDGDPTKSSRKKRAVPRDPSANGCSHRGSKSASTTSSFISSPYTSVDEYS
# Description: Displacement of [3H]-SB222200 from rat NK3R after 90 mins by scintillation counting analysis
# [23] = in vivo; conditions: Sprague-Dawley, rat, iv, 1 mg/kg
# Description: Volume of distribution at steady state in Sprague-Dawley rat at 1 mg/kg, iv by LC-MS/MS analysis
# [24] = in vivo; conditions: Sprague-Dawley, rat, iv, 1 mg/kg; remark: listed apart in the source
# [25] = in vivo; conditions: Sprague-Dawley, rat, po, 3 mg/kg
# [26] = in vivo; conditions: Sprague-Dawley, rat, po, 3 mg/kg; remark: listed apart in the source
# [27] = biological target: T3, Neuromedin-K receptor; test: biochemical
# Description: Displacement of [3H]-SB222200 from recombinant human NK3R expressed in CHO cell membranes after 90 mins by scintillation counting analysis
# [28] = Half life in rat liver microsomes; type: ADME
# Cytochrome P450 2C19, sequence (P33261 whole entry): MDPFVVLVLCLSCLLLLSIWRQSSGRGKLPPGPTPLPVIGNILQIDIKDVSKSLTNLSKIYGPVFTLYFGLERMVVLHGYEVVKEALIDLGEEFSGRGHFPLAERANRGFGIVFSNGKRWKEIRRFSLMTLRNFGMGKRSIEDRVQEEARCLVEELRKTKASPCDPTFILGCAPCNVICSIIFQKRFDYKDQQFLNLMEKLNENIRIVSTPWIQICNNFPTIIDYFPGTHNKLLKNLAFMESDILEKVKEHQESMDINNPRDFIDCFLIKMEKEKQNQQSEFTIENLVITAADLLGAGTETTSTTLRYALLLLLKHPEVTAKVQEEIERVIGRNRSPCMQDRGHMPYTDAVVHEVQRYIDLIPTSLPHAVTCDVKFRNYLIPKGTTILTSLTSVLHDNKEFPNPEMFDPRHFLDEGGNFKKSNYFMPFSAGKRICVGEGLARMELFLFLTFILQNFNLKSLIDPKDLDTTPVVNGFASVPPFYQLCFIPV
# Cytochrome P450 2C9, sequence (P11712 whole entry): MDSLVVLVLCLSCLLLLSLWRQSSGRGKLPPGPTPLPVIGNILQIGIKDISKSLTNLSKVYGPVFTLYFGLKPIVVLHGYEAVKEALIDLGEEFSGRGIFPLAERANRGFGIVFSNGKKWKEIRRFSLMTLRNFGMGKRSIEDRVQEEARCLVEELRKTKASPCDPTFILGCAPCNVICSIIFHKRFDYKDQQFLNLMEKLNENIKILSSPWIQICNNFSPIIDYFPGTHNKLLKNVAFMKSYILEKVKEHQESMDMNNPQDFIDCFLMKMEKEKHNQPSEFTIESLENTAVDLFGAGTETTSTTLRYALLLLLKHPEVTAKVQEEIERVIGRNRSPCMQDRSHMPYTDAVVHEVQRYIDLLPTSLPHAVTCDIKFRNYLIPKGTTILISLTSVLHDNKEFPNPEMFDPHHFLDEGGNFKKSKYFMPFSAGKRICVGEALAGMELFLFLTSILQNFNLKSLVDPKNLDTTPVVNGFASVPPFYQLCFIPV
# Cytochrome P450 2D6, sequence (P10635 whole entry): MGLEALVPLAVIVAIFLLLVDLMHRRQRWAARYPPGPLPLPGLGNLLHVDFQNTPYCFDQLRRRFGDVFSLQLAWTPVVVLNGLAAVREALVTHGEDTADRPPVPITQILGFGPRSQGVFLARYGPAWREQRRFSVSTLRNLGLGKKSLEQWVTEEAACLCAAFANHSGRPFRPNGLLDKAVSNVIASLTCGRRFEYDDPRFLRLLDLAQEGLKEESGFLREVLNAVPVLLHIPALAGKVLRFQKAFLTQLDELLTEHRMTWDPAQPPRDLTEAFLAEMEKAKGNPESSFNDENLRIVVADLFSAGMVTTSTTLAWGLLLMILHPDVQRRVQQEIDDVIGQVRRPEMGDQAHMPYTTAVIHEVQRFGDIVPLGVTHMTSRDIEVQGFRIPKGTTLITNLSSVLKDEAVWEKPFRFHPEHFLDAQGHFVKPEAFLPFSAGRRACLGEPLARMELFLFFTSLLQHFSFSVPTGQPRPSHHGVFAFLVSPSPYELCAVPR
# Cytochrome P450 3A4, sequence (P08684 whole entry): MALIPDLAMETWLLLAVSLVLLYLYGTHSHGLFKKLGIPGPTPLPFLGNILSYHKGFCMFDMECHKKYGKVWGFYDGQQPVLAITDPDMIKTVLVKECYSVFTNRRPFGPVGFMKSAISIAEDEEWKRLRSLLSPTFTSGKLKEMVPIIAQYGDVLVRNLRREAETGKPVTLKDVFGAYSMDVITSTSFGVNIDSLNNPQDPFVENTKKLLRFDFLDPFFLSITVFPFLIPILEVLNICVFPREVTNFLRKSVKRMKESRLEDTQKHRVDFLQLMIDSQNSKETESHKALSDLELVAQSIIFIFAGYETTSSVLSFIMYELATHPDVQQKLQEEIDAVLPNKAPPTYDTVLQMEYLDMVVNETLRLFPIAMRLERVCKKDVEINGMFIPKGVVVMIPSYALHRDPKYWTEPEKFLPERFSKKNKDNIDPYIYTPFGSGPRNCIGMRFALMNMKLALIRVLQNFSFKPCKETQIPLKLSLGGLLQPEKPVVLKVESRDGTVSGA
# Kappa-type opioid receptor (Homo sapiens), sequence (P41145 whole entry): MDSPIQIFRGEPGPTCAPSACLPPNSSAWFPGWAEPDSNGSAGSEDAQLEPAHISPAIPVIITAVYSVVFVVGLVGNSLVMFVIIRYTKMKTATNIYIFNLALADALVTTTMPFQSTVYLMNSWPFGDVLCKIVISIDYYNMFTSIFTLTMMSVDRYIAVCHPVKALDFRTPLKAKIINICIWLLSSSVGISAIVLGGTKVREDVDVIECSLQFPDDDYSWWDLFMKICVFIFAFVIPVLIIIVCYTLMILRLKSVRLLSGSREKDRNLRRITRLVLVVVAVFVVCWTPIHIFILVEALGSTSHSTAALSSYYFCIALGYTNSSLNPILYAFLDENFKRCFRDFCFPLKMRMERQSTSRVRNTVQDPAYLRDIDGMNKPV
structure (smiles),measurement,setting,value
CSCC[C@H](NC(=O)[C@H](CC(C)C)NC(=O)CNC(=O)[C@@H](NC(=O)[C@H](Cc1ccccc1)NC(=O)[C@H](Cc1ccccc1)NC(=O)[C@H](CC(=O)O)NC(=O)[C@H](Cc1c[nH]cn1)NC(=O)[C@H](CCSC)NC(=O)[C@@H](N)CC(=O)O)C(C)C)C(N)=O [NEUROKININ B],Ki,[1],15.8 nM
Cc1noc(-c2nnc3n2CCN(C(=O)c2ccc(-c4cccs4)cc2)[C@@H]3C)n1,logD,[2],2.2
same,solubility thermodynamic,[3],185 µM
same,IC50,[4],55 µM
same,IC50,[5],> 100 µM
same,IC50,[6],40 µM
same,IC50,[7],54 µM
same,IC50,[8],32 µM
same,inhibition,[9],23%
same,"fraction unbound at 4 h, 5 µM",[10],0.108
same,Papp A→B,[11],57.4 ×10⁻⁶ cm/s
same,Papp B→A,[12],60.4 ×10⁻⁶ cm/s
same,clearance,[13],11.3 mL/min/kg
same,fAUC,[14],23.3 µM·min
same,fAUC,[15],46.3 µM·min
same,fCmax,[16],272 nM
same,"fraction unbound at 4 h, 5 µM",[17],0.084
same,Kp uu at 10 min,[18],0.6
same,Kp uu at 1 h,[19],0.4
same,IC50,[20],25.1 nM
same,Ki,[21],25.1 nM
same,Ki,[22],116 nM
same,Vd,[23],1 L/kg
same,half-life,[24],62 min
same,Tmax,[25],35 min
same,bioavailability,[26],66%
same,Ki,[27],25.1 nM
N#CC(c1ccccn1)c1ccnc(N2CCN(C(=O)c3ccc(F)cc3)CC2)n1 (stereo unspecified),logD,[2],3.4
same,solubility thermodynamic,[3],1.3 µM
same,IC50,[5],< 5 µM
same,IC50,[6],< 5 µM
same,IC50,[7],< 5 µM
same,IC50,[8],< 5 µM
same,half-life,[28],13 min
same,IC50,[20],109 nM
same,Ki,[27],76 nM
